These results are taken from patent US11639343B2, “Compounds targeting and degrading BCR-ABL protein and its antitumor application” (ShanghaiTech University, priority 2019, dated 2023).

One experiment concerns K562 (BCR-ABL+) cells. Nature of the experiment: CCK-8 proliferation inhibition, K562 cells.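 Further: Ten-point threefold dilution series starting at 10 µM, absorbance at 450 nm after 2 h with CCK-8, DMSO as negative control.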 Particulars: Homo sapiens, K562, 48 h, CCK-8, 48 hours of drug treatment; read-out: Proliferative inhibitory activity (IC50, nM) K562 (BCR-ABL+). It is filed as cell-based, human.
For another experiment, the system named is U937 (BCR-ABL-) cells. Nature of the experiment: CCK-8 proliferation inhibition, U937 cells.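 Further: Ten-point threefold dilution series, absorbance at 450 nm after 2 h with CCK-8 reagent, DMSO as negative control.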 It is filed as cell-based, human. The note with it: Homo sapiens, U-937; CCK-8, 48 hours of drug treatment, highest concentration 10 μM; read-out: Proliferative inhibitory activity (IC50, nM) U937 (BCR-ABL-).
The next experiment has as its system HEK293 (BCR-ABL-) cells. Nature of the experiment: CCK-8 proliferation inhibition, HEK293 cells.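 Further: Ten-point threefold dilution series starting at 10 µM, CCK-8 absorbance at 450 nm read after 2 h reagent incubation, DMSO-treated cells as negative control.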 Particulars: Homo sapiens, HEK293, 48 h, read-out: Proliferative inhibitory activity (IC50, nM) HEK293 (BCR-ABL-).
The next experiment has as its target c-ABL protein (Homo sapiens, UniProt P00519). Nature of the experiment: Western blot degradation of c-ABL in K562 cells. It is filed as cell-based. Also noted: Western blot was used to detect the expression of BCR-ABL and c-ABL protein in K562 cells; endogenous in cells; host or cells: K562. The note with it: 16 hours, 1 nM-10 μM. On the procedure:
(§1) (1) Cell seed: K562 cells were added to the 24 well plates, with a cell density of 3×10^5/ml and a total volume of 1.5 ml; Five concentration gradients, 1 nm, 10 nm, 100 nm, 1 μM, and 10 μM, were respectively set for PROTAD series compounds and comparative examples compounds (Dasa-6-2-2-6-VHL, Dasa-6-2-6-CRBN). […] After 16 hours of drug treatment, the cells were collected in 1.5 ml ep tube, centrifuged at 3000 rpm for 3 minutes, and then added 30 μL PBS and 30 ul 2×SDS to cell precipitated, lysate Heat at 100° C. for 5 minutes, then place on ice for 5 minutes, centrifuged at 10000 rpm for 5 minutes, and take the supernatant as the total protein extracted. The protein concentration was determined by the Bradford method. After each sample was at the same concentration, bromophenol blue was added as the sample indicator.
(§2) (2) Electrophoresis: the starting voltage of the BioRad electrophoresis instrument was 80V, and as the dye enters the separation gel, the voltage was adjusted to 120V;
(§3) (3) Film transfer: prepare filter paper and nitrocellulose membrane with the corresponding size of the gel, filter paper, and NC film were soaked in transfer electrophoresis buffer.
(§4) DC50 (concentration required to degrade protein by half) were calculated based on the intensity from western blot, and data were analyzed via Prism GraphPad with non-linear regression.

A further experiment addresses BCR-ABL protein (Homo sapiens, UniProt P00519). In words: Western blot degradation of BCR-ABL in K562 cells. It is filed as cell-based. Details: Western blot was used to detect the expression of BCR-ABL and c-ABL protein in K562 cells; BCR (fusion partner, P11274); endogenous in cells; host or cells: K562; the other entry of the earlier key: BCR (P11274, Breakpoint cluster region protein). The note with it: 16 hours, 1 nM-10 μM. On the procedure: as §1, §2, §3, §4

Sequence of c-ABL protein (P00519 whole entry): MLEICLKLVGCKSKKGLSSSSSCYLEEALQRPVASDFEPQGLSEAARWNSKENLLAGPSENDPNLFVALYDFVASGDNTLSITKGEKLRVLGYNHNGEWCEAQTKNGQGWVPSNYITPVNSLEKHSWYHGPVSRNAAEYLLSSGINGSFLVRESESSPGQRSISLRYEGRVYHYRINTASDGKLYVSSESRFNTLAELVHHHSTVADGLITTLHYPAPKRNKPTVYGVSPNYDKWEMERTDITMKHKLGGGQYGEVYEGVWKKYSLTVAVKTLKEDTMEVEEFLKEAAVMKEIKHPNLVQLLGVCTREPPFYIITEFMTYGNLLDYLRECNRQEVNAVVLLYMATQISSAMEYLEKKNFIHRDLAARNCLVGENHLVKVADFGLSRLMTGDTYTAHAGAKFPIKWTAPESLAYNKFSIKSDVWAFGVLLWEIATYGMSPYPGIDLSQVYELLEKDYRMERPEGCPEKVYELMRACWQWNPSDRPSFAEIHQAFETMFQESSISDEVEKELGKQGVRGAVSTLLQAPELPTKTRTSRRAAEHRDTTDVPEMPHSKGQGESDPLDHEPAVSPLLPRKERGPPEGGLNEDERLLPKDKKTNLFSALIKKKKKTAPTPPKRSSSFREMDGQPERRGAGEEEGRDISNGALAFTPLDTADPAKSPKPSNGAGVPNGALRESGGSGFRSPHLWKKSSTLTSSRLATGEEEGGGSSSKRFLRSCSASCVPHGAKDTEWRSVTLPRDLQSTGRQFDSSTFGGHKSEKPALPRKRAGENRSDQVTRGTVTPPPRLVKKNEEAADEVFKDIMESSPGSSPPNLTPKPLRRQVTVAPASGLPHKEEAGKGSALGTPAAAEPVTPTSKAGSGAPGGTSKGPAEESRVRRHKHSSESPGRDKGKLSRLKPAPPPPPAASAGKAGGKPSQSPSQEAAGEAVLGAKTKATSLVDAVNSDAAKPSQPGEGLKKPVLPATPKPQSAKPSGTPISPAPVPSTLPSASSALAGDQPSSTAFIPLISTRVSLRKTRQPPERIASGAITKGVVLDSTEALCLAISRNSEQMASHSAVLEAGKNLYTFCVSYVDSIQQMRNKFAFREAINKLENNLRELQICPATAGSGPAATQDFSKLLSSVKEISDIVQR
Sequence of BCR-ABL protein (P00519 with tags, fused parts or gaps): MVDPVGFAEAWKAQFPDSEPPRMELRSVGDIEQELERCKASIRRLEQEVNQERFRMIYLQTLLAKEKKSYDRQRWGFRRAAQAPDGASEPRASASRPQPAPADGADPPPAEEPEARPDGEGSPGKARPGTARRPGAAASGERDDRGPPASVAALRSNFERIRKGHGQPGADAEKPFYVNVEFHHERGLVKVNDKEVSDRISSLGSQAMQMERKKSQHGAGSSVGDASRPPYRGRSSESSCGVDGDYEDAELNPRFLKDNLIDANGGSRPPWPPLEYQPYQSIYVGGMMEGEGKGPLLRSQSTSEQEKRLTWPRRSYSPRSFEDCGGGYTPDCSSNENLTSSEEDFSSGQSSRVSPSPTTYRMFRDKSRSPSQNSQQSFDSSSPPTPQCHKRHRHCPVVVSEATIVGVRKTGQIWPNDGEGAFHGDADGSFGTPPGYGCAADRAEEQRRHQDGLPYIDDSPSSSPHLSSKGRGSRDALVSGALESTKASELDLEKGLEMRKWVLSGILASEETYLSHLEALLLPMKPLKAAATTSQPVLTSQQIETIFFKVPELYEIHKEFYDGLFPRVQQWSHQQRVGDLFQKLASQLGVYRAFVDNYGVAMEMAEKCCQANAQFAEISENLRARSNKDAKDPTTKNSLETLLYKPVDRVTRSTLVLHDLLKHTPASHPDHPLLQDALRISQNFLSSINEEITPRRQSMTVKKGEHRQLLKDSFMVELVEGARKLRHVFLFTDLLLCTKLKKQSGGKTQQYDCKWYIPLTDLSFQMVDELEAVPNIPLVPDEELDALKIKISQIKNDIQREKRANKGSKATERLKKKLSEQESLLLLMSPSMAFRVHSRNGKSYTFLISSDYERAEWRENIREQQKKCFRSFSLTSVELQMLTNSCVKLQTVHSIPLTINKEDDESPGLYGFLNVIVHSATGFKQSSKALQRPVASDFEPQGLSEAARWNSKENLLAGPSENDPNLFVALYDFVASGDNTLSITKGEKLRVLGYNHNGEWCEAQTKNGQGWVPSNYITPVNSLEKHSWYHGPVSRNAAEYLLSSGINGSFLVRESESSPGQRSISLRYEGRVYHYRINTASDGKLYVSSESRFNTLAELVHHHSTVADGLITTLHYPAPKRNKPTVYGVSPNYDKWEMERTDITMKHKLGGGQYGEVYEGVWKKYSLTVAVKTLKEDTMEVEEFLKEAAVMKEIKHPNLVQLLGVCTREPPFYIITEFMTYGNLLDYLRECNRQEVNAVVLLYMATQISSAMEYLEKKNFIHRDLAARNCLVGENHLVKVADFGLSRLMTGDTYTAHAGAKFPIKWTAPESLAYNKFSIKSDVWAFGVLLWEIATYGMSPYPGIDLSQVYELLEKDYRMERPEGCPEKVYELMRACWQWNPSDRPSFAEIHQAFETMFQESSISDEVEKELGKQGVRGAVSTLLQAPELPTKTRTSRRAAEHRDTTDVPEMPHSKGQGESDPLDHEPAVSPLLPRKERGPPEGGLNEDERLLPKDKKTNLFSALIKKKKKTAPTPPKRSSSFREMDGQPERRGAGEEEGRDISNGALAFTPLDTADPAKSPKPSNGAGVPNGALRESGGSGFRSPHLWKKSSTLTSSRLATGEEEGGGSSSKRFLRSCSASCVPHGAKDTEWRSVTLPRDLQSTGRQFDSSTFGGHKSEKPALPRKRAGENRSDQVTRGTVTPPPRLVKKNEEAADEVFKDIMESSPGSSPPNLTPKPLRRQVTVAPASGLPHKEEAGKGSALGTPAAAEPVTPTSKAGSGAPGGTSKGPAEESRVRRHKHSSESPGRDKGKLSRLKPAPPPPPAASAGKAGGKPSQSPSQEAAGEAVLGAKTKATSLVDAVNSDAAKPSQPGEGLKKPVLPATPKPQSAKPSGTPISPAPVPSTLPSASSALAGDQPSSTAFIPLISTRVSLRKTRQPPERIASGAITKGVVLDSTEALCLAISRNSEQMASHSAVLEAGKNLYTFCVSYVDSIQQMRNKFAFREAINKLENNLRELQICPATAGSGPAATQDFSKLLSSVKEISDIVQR

For `Cc1nc(Nc2ncc(C(=O)Nc3c(C)cccc3Cl)s2)cc(N2CCN(C(=O)CCc3cccc4c3C(=O)N(C3CCC(=O)NC3=O)C4=O)CC2)n1` (stereo not drawn) [SIAIS172150, N-(2-chloro-6-methylphenyl)-2-((6-(4-(3-(2-(2,6-dioxopiperidin-3-yl)-1,3-dioxoisoindolin-4-yl)propanoyl)piperazin-1-yl)-2-methylpyrimidin-4-yl)amino)thiazole-5-carboxamide], the figures for the IC50 with K562 (BCR-ABL+) cells, in the experiment with U937 (BCR-ABL-) cells and with HEK293 (BCR-ABL-) cells were 2.84 nM, above 10000 nM and above 10000 nM, respectively. Besides, the DC50 at c-ABL protein and at BCR-ABL protein was 10 to 100 nM throughout.
Take `COc1cc(Nc2c(C#N)cnc3cc(OCCCN4CCN(C(=O)CCC(=O)Nc5cccc6c5CN(C5CCC(=O)NC5=O)C6=O)CC4)c(OC)cc23)c(Cl)cc1Cl` (stereo not drawn) [SIAIS164105, 4-(4-(3-((3-cyano-4-((2,4-dichloro-5-methoxyphenyl)amino)-6-methoxyquinolin-7-yl)oxy)propyl)piperazin-1-yl)-N-(2-(2,6-dioxopiperidin-3-yl)-1-oxoisoindolin-4-yl)-4-oxobutanamide]: the IC50 in the experiment on K562 (BCR-ABL+) cells was 459 nM; in the experiment on U937 (BCR-ABL-) cells, above 10000 nM; in the experiment with HEK293 (BCR-ABL-) cells it was above 10000 nM. The DC50 on c-ABL protein and at BCR-ABL protein was 10 to 100 nM in each case.
Consider `COc1cc(Nc2c(C#N)cnc3cc(OCCCN4CCN(C(=O)CCOCCOCCNc5cccc6c5C(=O)N(C5CCC(=O)NC5=O)C6=O)CC4)c(OC)cc23)c(Cl)cc1Cl` (stereo not drawn) [SIAIS151158, 4-((2,4-dichloro-5-methoxyphenyl)amino)-7-(3-(4-(3-(2-(2-((2-(2,6-dioxopiperidin-3-yl)-1,3-dioxoisoindolin-4-yl)amino)ethoxy)ethoxy)propanoyl)piperazin-1-yl)propoxy)-6-methoxyquinoline-3-carbonitrile], for which the IC50 in the experiment with K562 (BCR-ABL+) cells is 3130 nM; in the experiment on U937 (BCR-ABL-) cells, above 10000 nM; in the experiment with HEK293 (BCR-ABL-) cells, above 10000 nM. Also, the DC50 on c-ABL protein and at BCR-ABL protein was 10 to 100 nM throughout.
For `Cc1nc(Nc2ncc(C(=O)Nc3c(C)cccc3Cl)s2)cc(N2CCN(C(=O)CCCC(=O)N[C@H](C(=O)N3C[C@H](O)C[C@H]3C(=O)NCc3ccc(-c4scnc4C)cc3)C(C)(C)C)CC2)n1` [SIAIS151175, N-(2-chloro-6-methylphenyl)-2-((6-(4-(5-(((S)-1-((2S,4R)-4-hydroxy-2-((4-(4-methylthiazol-5-yl)benzyl)carbamoyl)pyrrolidin-1-yl)-3,3-dimethyl-1-oxobutan-2-yl)amino)-5-oxopentanoyl)piperazin-1-yl)-2-methylpyrimidin-4-yl)amino)thiazole-5-carboxamide], the figures for the IC50 in the experiment with K562 (BCR-ABL+) cells, in the experiment on U937 (BCR-ABL-) cells and in the experiment on HEK293 (BCR-ABL-) cells were 87 nM, above 10000 nM and 3890 nM, respectively. Also, the DC50 at c-ABL protein is 100 to 1000 nM; at BCR-ABL protein, 10 to 100 nM.
For `Cc1nc(Nc2ncc(C(=O)Nc3c(C)cccc3Cl)s2)cc(N2CCN(C(=O)CCCC(=O)Nc3cccc4c3C(=O)N(C3CCC(=O)NC3=O)C4=O)CC2)n1` (stereo not drawn) [SIAIS184053, N-(2-chloro-6-methylphenyl)-2-((6-(4-(5-((2-(2,6-dioxopiperidin-3-yl)-1,3-dioxoisoindolin-4-yl)amino)-5-oxopentanoyl)piperazin-1-yl)-2-methylpyrimidin-4-yl)amino)thiazole-5-carboxamide], in that order: 16.5 nM, above 10000 nM, above 10000 nM, 10 to 100 nM and 10 to 100 nM.
Taken in the same sequence, the figures for `Cc1nc(Nc2ncc(C(=O)Nc3c(C)cccc3Cl)s2)cc(N2CCN(C(=O)CCC(=O)Nc3cccc4c3CN(C3CCC(=O)NC3=O)C4=O)CC2)n1` (stereo not drawn) [SIAIS164109, N-(2-chloro-6-methylphenyl)-2-((6-(4-(4-((2-(2,6-dioxopiperidin-3-yl)-1-oxoisoindolin-4-yl)amino)-4-oxobutanoyl)piperazin-1-yl)-2-methylpyrimidin-4-yl)amino)thiazole-5-carboxamide] were 7.08 nM, above 10000 nM, above 10000 nM, 100 to 1000 nM and 100 to 1000 nM.
Consider `Cc1nc(Nc2ncc(C(=O)Nc3c(C)cccc3Cl)s2)cc(N2CCN(C(=O)CCOCCOCCOCCOCCOCCNc3cccc4c3C(=O)N(C3CCC(=O)NC3=O)C4=O)CC2)n1` (stereo not drawn) [SIAIS151069, N-(2-chloro-6-methylphenyl)-2-((6-(4-(1-((2-(2,6-dioxopiperidin-3-yl)-1,3-dioxoisoindolin-4-yl)amino)-3,6,9,12,15-pentaoxaoctadecan-18-oyl)piperazin-1-yl)-2-methylpyrimidin-4-yl)amino)thiazole-5-carboxamide], for which the concentration for half-maximal inhibition (IC50) was 31.9 nM with K562 (BCR-ABL+) cells, above 10000 nM in the experiment with U937 (BCR-ABL-) cells and above 10000 nM with HEK293 (BCR-ABL-) cells. In addition, the DC50 on c-ABL protein was in the range of 10 to 100 nM; on BCR-ABL protein it was 1 to 10 nM.
Take `Cc1nc(Nc2ncc(C(=O)Nc3c(C)cccc3Cl)s2)cc(N2CCN(C(=O)CCOCCOCCNc3cccc4c3C(=O)N(C3CCC(=O)NC3=O)C4=O)CC2)n1` (stereo not drawn) [SIAIS151064, N-(2-chloro-6-methylphenyl)-2-((6-(4-(3-(2-(2-((2-(2,6-dioxopiperidin-3-yl)-1,3-dioxoisoindolin-4-yl)amino)ethoxy)ethoxy)propanoyl)piperazin-1-yl)-2-methylpyrimidin-4-yl)amino)thiazole-5-carboxamide]: the IC50 in the experiment on K562 (BCR-ABL+) cells is 8.05 nM; with U937 (BCR-ABL-) cells, above 10000 nM; in the experiment on HEK293 (BCR-ABL-) cells, above 10000 nM. Also, the DC50 fell in the range of 10 to 100 nM on c-ABL protein and 1 to 10 nM on BCR-ABL protein.
On to `COc1cc(Nc2c(C#N)cnc3cc(OCCCN4CCN(C(=O)CCOCCOCCOCCNc5cccc6c5C(=O)N(C5CCC(=O)NC5=O)C6=O)CC4)c(OC)cc23)c(Cl)cc1Cl` (stereo not drawn) [SIAIS151159, 4-((2,4-dichloro-5-methoxyphenyl)amino)-7-(3-(4-(3-(2-(2-(2-((2-(2,6-dioxopiperidin-3-yl)-1,3-dioxoisoindolin-4-yl)amino)ethoxy)ethoxy)ethoxy)propanoyl)piperazin-1-yl)propoxy)-6-methoxyquinoline-3-carbonitrile], for which the concentration for half-maximal inhibition (IC50) was 4260 nM in the experiment with K562 (BCR-ABL+) cells, above 10000 nM in the experiment with U937 (BCR-ABL-) cells and above 10000 nM with HEK293 (BCR-ABL-) cells. Further, the DC50 at c-ABL protein and on BCR-ABL protein was 10 to 100 nM each time.
Turning to `COc1cc(Nc2c(C#N)cnc3cc(OCCCN4CCN(C(=O)CCCCCNc5cccc6c5C(=O)N(C5CCC(=O)NC5=O)C6=O)CC4)c(OC)cc23)c(Cl)cc1Cl` (stereo not drawn) [SIAIS151166, 4-((2,4-dichloro-5-methoxyphenyl)amino)-7-(3-(4-(6-((2-(2,6-dioxopiperidin-3-yl)-1,3-dioxoisoindolin-4-yl)amino)hexanoyl)piperazin-1-yl)propoxy)-6-methoxyquinoline-3-carbonitrile], the IC50 with K562 (BCR-ABL+) cells is 894 nM; in the experiment with U937 (BCR-ABL-) cells, above 10000 nM; in the experiment with HEK293 (BCR-ABL-) cells, above 10000 nM. The DC50 at c-ABL protein and at BCR-ABL protein was 10 to 100 nM each time.
Turning to `Cc1nc(Nc2ncc(C(=O)Nc3c(C)cccc3Cl)s2)cc(N2CCN(C(=O)CCCCCCCC(=O)N[C@H](C(=O)N3C[C@H](O)C[C@H]3C(=O)NCc3ccc(-c4scnc4C)cc3)C(C)(C)C)CC2)n1` [SIAIS151179, N-(2-chloro-6-methylphenyl)-2-((6-(4-(9-(((S)-1-((2S,4R)-4-hydroxy-2-((4-(4-methylthiazol-5-yl)benzyl)carbamoyl)pyrrolidin-1-yl)-3,3-dimethyl-1-oxobutan-2-yl)amino)-9-oxononanoyl)piperazin-1-yl)-2-methylpyrimidin-4-yl)amino)thiazole-5-carboxamide], the values for the IC50 in the experiment with K562 (BCR-ABL+) cells, with U937 (BCR-ABL-) cells and with HEK293 (BCR-ABL-) cells were 22.4 nM, above 10000 nM and above 10000 nM, respectively. Besides, the DC50 lay within 100 to 1000 nM at c-ABL protein and 10 to 100 nM at BCR-ABL protein.
Consider `COc1cc(Nc2c(C#N)cnc3cc(OCCCN4CCN(C(=O)CCCCNc5cccc6c5C(=O)N(C5CCC(=O)NC5=O)C6=O)CC4)c(OC)cc23)c(Cl)cc1Cl` (stereo not drawn) [SIAIS151163, 4-((2,4-dichloro-5-methoxyphenyl)amino)-7-(3-(4-(5-((2-(2,6-dioxopiperidin-3-yl)-1,3-dioxoisoindolin-4-yl)amino)pentanoyl)piperazin-1-yl)propoxy)-6-methoxyquinoline-3-carbonitrile], for which the IC50 was 126 nM in the experiment on K562 (BCR-ABL+) cells, above 10000 nM in the experiment on U937 (BCR-ABL-) cells and above 10000 nM in the experiment on HEK293 (BCR-ABL-) cells. In addition, the DC50 at c-ABL protein and at BCR-ABL protein was 10 to 100 nM in each case.
